Experiments:
[1] = test system: S.aureus ATCC 29213; format: cell-based, Staphylococcus aureus; details: ATCC 29213, 24 h
Procedure: (§1) Antimicrobial activity of the purified lipopeptoids was determined without replication against a panel of clinically relevant and standard reference bacterial strains according to CLSI macrobroth standards. Stock solutions at 512 µg/mL were prepared in water, with DMSO as needed, and testing was performed in glass test tubes using Muller-Hinton broth and bacteria adjusted to 5 × 10^5 CFU/mL. Bacteria were incubated with the lipopeptoid of interest for 24 hr at 37°C prior to reading.
(§2) The bacteria Staphylococcus aureus ATCC 29213, methicillin-resistant S. aureus ATCC 33592, Staphylococcus epidermidis ATCC 14990, Enterococcus faecalis ATCC 29212, E. faecium ATCC 27270, Streptococcus pneumoniae ATCC 49619, Escherichia coli ATCC 25922, Pseudomonas aeruginosa ATCC 27853, and Klebsiella pneumoniae ATCC 13883 were acquired from the American Type Culture Collection (ATCC) and used as quality controls. The clinical strains methicillin-resistant S. epidermidis (MRSE) CAN-ICU 61589, E. coli CAN-ICU 61714, E. coli CAN-ICU 63074, P. aeruginosa CAN-ICU 62308, Stenotrophomonas maltophilia CAN-ICU 62584, Acinetobacter baumannii CAN-ICU 63169 were obtained from hospitals across Canada as part of the CAN-ICU studies, while methicillin-susceptible S. epidermidis (MSSE) 81388 was obtained from the 2008 CANWARD study.
(§3) After subculturing the relevant bacteria twice from frozen stock, in vitro activities of the antimicrobials were determined by macrobroth dilution methodology in accordance with the Clinical and Laboratory Standards Institute (CLSI) guidelines (3). The MICs were determined using glass test tubes (2 mL/tube) containing doubling antimicrobial dilutions of cation adjusted Mueller-Hinton broth inoculated to achieve a final concentration of approximately 5 x 10^5 CFU/mL, incubated in ambient air for 24 hr prior to reading. Colony counts were performed periodically to confirm inocula. The ATCC organisms […] ATCC 49619, Staphylococcus aureus ATCC 29213, Enterococcus faecalis ATCC 29212, Escherichia coli ATCC 25922, and Pseudomonas aeruginosa ATCC 27853 were used as quality control and to allow easy comparison to previously tested antimicrobials. Each test in this series was performed without replication. In our experience with cationic amphiphiles the results are accurate to within a single doubling.

[2] = test system: MRSA ATCC 33592; format: cell-based, methicillin-resistant S. aureus; details: ATCC 33592, 24 h
Procedure: as §1, §2, §3

[3] = test system: MSSE 81388 CANWARD 2008; format: cell-based, methicillin-susceptible S. epidermidis; details: 24 h
Procedure: as §1, §2, §3

[4] = test system: MRSE CAN-ICU 61589; format: cell-based, methicillin-resistant S. epidermidis; details: CAN-ICU 61589, 24 h
Procedure: as §1, §2, §3

[5] = test system: E. faecalis ATCC 29212; format: cell-based, Enterococcus faecalis; details: ATCC 29212, 24 h
Procedure: as §1, §2, §3

[6] = test system: S.pneumoniae ATCC 49619; format: cell-based, Streptococcus pneumoniae; details: ATCC 49619, 24 h
Procedure: as §1, §2, §3

[7] = test system: P.aeruginosa ATCC 27853; format: cell-based, Pseudomonas aeruginosa; details: ATCC 27853, 24 h
Procedure: as §1, §2, §3

[8] = test system: P.aeruginosa CAN-ICU 62308; format: cell-based, Pseudomonas aeruginosa; details: CAN-ICU 62308, 24 h
Procedure: as §1, §2, §3

[9] = test system: S. maltophilia CAN-ICU 62584; format: cell-based, Stenotrophomonas maltophilia; details: CAN-ICU 62584, 24 h
Procedure: as §1, §2, §3

[10] = test system: A. baumannii CAN-ICU 63169; format: cell-based, Acinetobacter baumannii; details: CAN-ICU 63169, 24 h
Procedure: as §1, §2, §3

[11] = test system: K.pneumoniae ATCC 13883; format: cell-based, Klebsiella pneumoniae; details: ATCC 13883, 24 h
Procedure: as §1, §2, §3

[12] = test system: ovine erythrocytes; assay: Haemolytic assay; format: cell-based, sheep; details: ovine erythrocytes in Tris buffered saline, 30 minutes, absorbance of supernatant at 540 nm
Procedure: Mammalian cell toxicity was determined by measuring lysis of ovine erythrocytes, a standard model for human cell toxicity. Cells were prewashed with Tris buffered saline and then incubated with a variety of lipopeptoid concentrations for 30 minutes. Following centrifugation, lysis was evaluated by testing the absorbance of the solution at 540 nm, with 0.5% NH4OH used as a positive control.
Toxicity to mammalian cells was determined using a sheep red blood cell (erythrocyte) haemolytic assay (4). Erythrocytes were washed and resuspended in Tris buffered saline prior to use, at a concentration of 1.46 - 4.5 x 10^9 cells/mL (on average 3.08 x 10^9 cells/mL). The cell suspension was diluted with varying concentrations of antimicrobials, from 50 μg/mL to 1 mg/mL and incubated for thirty minutes (final erythrocyte concentration 4.08 x 10^8 cells/mL). The samples were centrifuged following treatment and the absorbance of the supernatant was measured at 540 nm. A solution of 0.5% […] was used as a positive control, with normal buffered solution as the negative control. The toxicity was assessed as a function of percent haemolysis.

[13] = test system: E.coli ATCC 25922; format: cell-based, Escherichia coli; details: ATCC 25922, 24 h
Procedure: as §1, §2, §3

[14] = test system: E.coli CAN-ICU 61714; format: cell-based, Escherichia coli; details: CAN-ICU 61714, 24 h
Procedure: as §1, §2, §3

[15] = test system: E.coli CAN-ICU 63074; format: cell-based, Escherichia coli; details: CAN-ICU 63074, 24 h
Procedure: as §1, §2, §3

[16] = test system: E. faecium ATCC 27270; format: cell-based; details: ATCC 27270, 24 h
Procedure: as §1, §2, §3

CCCCCCCCCCC(=O)N(CCCCNC(=N)N)CC(=O)NCC(=O)N(CCCCNC(=N)N)CC(N)=O [C11-NhargGNharg]
256 µg/mL: MIC MSSE in the presence of 4% bovine serum albumin [3] | MIC E. faecalis [5] | MIC E. faecium [16]
1.49%: Percent haemolysis at 100µg/mL of compound [12]
>512 µg/mL: MIC E. faecalis in the presence of 4% bovine serum albumin [5] | MIC S.pneumoniae in the presence of 4% bovine serum albumin [6] | MIC P.aeruginosa [7] | MIC P.aeruginosa in the presence of 4% bovine serum albumin [7] | MIC S. maltophilia [9] | MIC S. maltophilia in the presence of 4% bovine serum albumin [9] | MIC A. baumannii in the presence of 4% bovine serum albumin [10] | MIC E.coli in the presence of 4% bovine serum albumin [14] | MIC E.coli in the presence of 4% bovine serum albumin [15]
128 µg/mL: MIC S.aureus [1] | MIC MRSA [2] | MIC MSSE [3] | MIC MRSE [4]
512 µg/mL: MIC S.aureus in the presence of 4% bovine serum albumin [1] | MIC MRSA in the presence of 4% bovine serum albumin [2] | MIC MRSE in the presence of 4% bovine serum albumin [4] | MIC S.pneumoniae [6] | MIC P.aeruginosa [8] | MIC P.aeruginosa in the presence of 4% bovine serum albumin [8] | MIC A. baumannii [10] | MIC K.pneumoniae [11] | MIC K.pneumoniae in the presence of 4% bovine serum albumin [11] | MIC E.coli [13] | MIC E.coli in the presence of 4% bovine serum albumin [13] | MIC E.coli [14] | MIC E.coli [15] | MIC E. faecium in the presence of 4% bovine serum albumin [16]

CCCCCCCCCCCCCCCCCCCC(=O)N(CCCCNC(=N)N)CC(=O)NCC(=O)N(CCCCNC(=N)N)CC(N)=O [C20-NhargGNharg]
>512 µg/mL: MIC P.aeruginosa in the presence of 4% bovine serum albumin [7] | MIC P.aeruginosa in the presence of 4% bovine serum albumin [8] | MIC S. maltophilia in the presence of 4% bovine serum albumin [9] | MIC A. baumannii in the presence of 4% bovine serum albumin [10] | MIC E.coli in the presence of 4% bovine serum albumin [14]
512 µg/mL: MIC S.aureus in the presence of 4% bovine serum albumin [1] | MIC MRSA in the presence of 4% bovine serum albumin [2] | MIC E. faecalis in the presence of 4% bovine serum albumin [5] | MIC P.aeruginosa [7] | MIC K.pneumoniae in the presence of 4% bovine serum albumin [11] | MIC E.coli in the presence of 4% bovine serum albumin [13] | MIC E.coli in the presence of 4% bovine serum albumin [15]
256 µg/mL: MIC MSSE in the presence of 4% bovine serum albumin [3] | MIC MRSE in the presence of 4% bovine serum albumin [4] | MIC S.pneumoniae [6] | MIC P.aeruginosa [8] | MIC S. maltophilia [9] | MIC E.coli [13] | MIC E.coli [14] | MIC E.coli [15] | MIC E. faecium in the presence of 4% bovine serum albumin [16]
71.87%: Percent haemolysis at 100µg/mL of compound [12]
128 µg/mL: MIC A. baumannii [10] | MIC K.pneumoniae [11]
8 µg/mL: MIC MSSE [3] | MIC MRSE [4]
16 µg/mL: MIC S.aureus [1] | MIC MRSA [2] | MIC E. faecalis [5] | MIC E. faecium [16]
64 µg/mL: MIC S.pneumoniae in the presence of 4% bovine serum albumin [6]

CCCCCCCCCCCCCCCC(=O)N(CCCCN)CC(=O)N(CCCCN)CC(=O)N(CCCCN)CC(N)=O [C16-NlysNlysNlys]
512 µg/mL: MIC S.aureus in the presence of 4% bovine serum albumin [1] | MIC MSSE in the presence of 4% bovine serum albumin [3] | MIC MRSE in the presence of 4% bovine serum albumin [4] | MIC S.pneumoniae in the presence of 4% bovine serum albumin [6]
16 µg/mL: MIC S.aureus [1]
8 µg/mL: MIC MSSE [3] | MIC MRSE [4]
32 µg/mL: MIC MRSA [2] | MIC E. faecalis [5] | MIC E.coli [13] | MIC E. faecium [16]
64 µg/mL: MIC E.coli [14] | MIC E.coli [15]
256 µg/mL: MIC S. maltophilia [9] | MIC A. baumannii [10]
>512 µg/mL: MIC MRSA in the presence of 4% bovine serum albumin [2] | MIC E. faecalis in the presence of 4% bovine serum albumin [5] | MIC P.aeruginosa in the presence of 4% bovine serum albumin [7] | MIC P.aeruginosa in the presence of 4% bovine serum albumin [8] | MIC S. maltophilia in the presence of 4% bovine serum albumin [9] | MIC A. baumannii in the presence of 4% bovine serum albumin [10] | MIC K.pneumoniae in the presence of 4% bovine serum albumin [11] | MIC E.coli in the presence of 4% bovine serum albumin [13] | MIC E.coli in the presence of 4% bovine serum albumin [14] | MIC E.coli in the presence of 4% bovine serum albumin [15] | MIC E. faecium in the presence of 4% bovine serum albumin [16]
67.69%: Percent haemolysis at 100µg/mL of compound [12]
128 µg/mL: MIC S.pneumoniae [6] | MIC P.aeruginosa [7] | MIC P.aeruginosa [8] | MIC K.pneumoniae [11]
